Test results from patent publication US20160039880A1 (priority 2012, published 2016).
Converted amounts (≈) assume the structure as drawn. Read-outs that look alike come from different tables or passages of the source.

Tests used:
[1] = Water Solubility Assay (measured in pH 7.8 buffer); type: physicochemical;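 note: precipitation onset detected as rise in absorbance at 650 nm across increasing concentrations, after shaking for 18 h, blank wells receiving DMSO only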
[2] = target: Human recombinant cyclophilin A (Cyp A) (Homo sapiens, UniProt P62937); test: Protease-free PPIase assay;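 note: cis to trans isomerization of SUC-AAPF-pNA by 2 nM enzyme, read as absorbance at 330 nm over 300 s at 10 °C, catalytic rate corrected for uncatalyzed background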
[3] = 25 °C, pH 7.8, aqueous buffer, kinetic from dmso stock
[4] = 35 mM HEPES buffer pH 7.8, 25 °C, aqueous buffer, kinetic from dmso stock, pH 7.8 buffer, read-out: Water Solubility Assay
[5] = read-out: Protease-free PPIase Assay Ki, cyclophilin A, 10 °C

Sequence of Human recombinant cyclophilin A (Cyp A) (P62937 whole entry): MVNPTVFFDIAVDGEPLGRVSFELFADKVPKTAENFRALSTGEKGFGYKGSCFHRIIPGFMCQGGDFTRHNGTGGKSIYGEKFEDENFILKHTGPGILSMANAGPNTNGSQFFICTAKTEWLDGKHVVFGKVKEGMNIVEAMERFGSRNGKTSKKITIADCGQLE

SMILES	solubility at 18 h [1, 3] [µM]	Ki [2] [nM]	other results
CC[C@H]1NC(=O)[C@@H]([C@H](O)[C@H](C)CCCCCN2CCOCC2)N(C)C(=O)[C@@H](C(C)C)N(C)C(=O)[C@@H](CC(C)C)N(C)C(=O)[C@@H](CC(C)C)N(C)C(=O)[C@H](C)NC(=O)[C@@H](C)NC(=O)[C@@H](CC(C)C)N(C)C(=O)[C@@H](C(C)C)NC(=O)[C@H](CC(C)C)N(C)C(=O)CN(C)C1=O [Compound C, [(6R,7R,8S)-7-Hydroxy-6-methyl-8-(methylamino)-1-N-morpholinyl-nonanoic acid]^1 cyclosporin A]	–	14	solubility at 18 h ([1]; 35 mM HEPES buffer pH 7.8, aqueous buffer, kinetic from dmso stock, 35 mM HEPES pH 7.8, 1% DMSO, 25 °C, 18 h, read-out: Water Solubility Assay, concentration at which the compound remains in solution): > 100 µM
CC[C@H]1NC(=O)[C@@H]([C@H](O)[C@H](C)CCN2CCOCC2)N(C)C(=O)[C@@H](C(C)C)N(C)C(=O)[C@@H](CC(C)C)N(C)C(=O)[C@@H](CC(C)C)N(C)C(=O)[C@H](C)NC(=O)[C@@H](C)NC(=O)[C@@H](CC(C)C)N(C)C(=O)[C@@H](C(C)C)NC(=O)[C@H](CC(C)C)N(C)C(=O)[C@@H](COC)N(C)C1=O [Compound D, [(3R,4R,5S)-4-Hydroxy-3-methyl-5-(methylamino)-1-N-morpholino-hexanoic acid]^1[(R)-methoxymethylene-Sar]^3 cyclosporin A]	75 to 100 (≈ 97.9 to 131 µg/mL)	10	–
CC[C@H]1NC(=O)[C@@H]([C@H](O)[C@H](C)CCN(C)Cc2cccnc2)N(C)C(=O)[C@@H](C(C)C)N(C)C(=O)[C@@H](CC(C)C)N(C)C(=O)[C@@H](CC(C)C)N(C)C(=O)[C@H](C)NC(=O)[C@@H](C)NC(=O)[C@@H](CC(C)C)N(C)C(=O)[C@@H](C(C)C)NC(=O)[C@H](CC(C)C)N(C)C(=O)[C@@H](C)N(C)C1=O [Compound DF, [(3R,4R,5S)-4-Hydroxy-3-methyl-5-(methylamino)-1-({pyridin-3-ylmethyl}-methylamino)-hexanoic acid]^1[(R)-methyl-Sar]^3 cyclosporin A]	–	14	solubility at 18 h [1, 4]: > 100 µM
CC[C@H]1NC(=O)[C@@H]([C@H](O)[C@H](C)CCN(C)c2ccccc2)N(C)C(=O)[C@@H](C(C)C)N(C)C(=O)[C@@H](CC(C)C)N(C)C(=O)[C@@H](CC(C)C)N(C)C(=O)[C@H](C)NC(=O)[C@@H](C)NC(=O)[C@@H](CC(C)C)N(C)C(=O)[C@@H](C(C)C)NC(=O)[C@H](CC(C)C)N(C)C(=O)[C@@H](C)N(C)C1=O [Compound DC, [(3R,4R,5S)-4-Hydroxy-3-methyl-5-(methylamino)-1-(methyl-phenyl-amino)-hexanoic acid]^1[(R)-methyl-Sar]^3 cyclosporin A]	10 to 25 (≈ 13 to 32.4 µg/mL)	6	–
CC[C@H]1NC(=O)[C@@H]([C@H](O)[C@H](C)CCN(C)c2ccccn2)N(C)C(=O)[C@@H](C(C)C)N(C)C(=O)[C@@H](CC(C)C)N(C)C(=O)[C@@H](CC(C)C)N(C)C(=O)[C@H](C)NC(=O)[C@@H](C)NC(=O)[C@@H](CC(C)C)N(C)C(=O)[C@@H](C(C)C)NC(=O)[C@H](CC(C)C)N(C)C(=O)[C@@H](C)N(C)C1=O [Compound DD, [(3R,4R,5S)-4-Hydroxy-3-methyl-5-(methylamino)-1-(methyl-pyridin-2-yl-amino)-hexanoic acid]^1[(R)-methyl-Sar]^3 cyclosporin A]	25 to 50 (≈ 32.4 to 64.8 µg/mL)	4.8	–
CC[C@H]1NC(=O)[C@@H]([C@H](O)[C@H](C)CCN2CCOCC2)N(C)C(=O)[C@@H](C(C)C)N(C)C(=O)[C@@H](CC(C)C)N(C)C(=O)[C@@H](CC(C)C)N(C)C(=O)[C@H](C)NC(=O)[C@@H](C)NC(=O)[C@@H](CC(C)C)N(C)C(=O)[C@@H](C(C)C)NC(=O)[C@H](CC(C)C)N(C)C(=O)[C@@H](OC)N(C)C1=O [Compound B, [(3R,4R,5S)-4-Hydroxy-3-methyl-5-(methylamino)-1-N-morpholino-hexanoic acid]^1[(S)-methoxy-Sar]^3 cyclosporin A]	> 100	8	–
CCC1NC(=O)C(C(O)C(C)CCN(CC)CC)N(C)C(=O)C(C(C)C)N(C)C(=O)C(CC(C)C)N(C)C(=O)C(CC(C)C)N(C)C(=O)C(C)NC(=O)C(C)NC(=O)C(CC(C)C)N(C)C(=O)C(C(C)C)NC(=O)C(CC(C)C)N(C)C(=O)C(C)N(C)C1=O [Compound M, [(3R,4R,5S)-4-hydroxy-3-methyl-5-(methylamino)-1-N-diethylamino-hexanoic acid]^1[(R)-Me-Sar]^3 cyclosporin A]	–	–	Water Solubility Assay, concentration at which the compound remains in solution ([1]; 35 mM HEPES pH 7.8, 1% DMSO, 25 °C, 18 h): 75 to 100 µM; Ki [2, 5]: 90 nM
CC[C@H]1NC(=O)[C@@H]([C@H](O)[C@H](C)CCN(Cc2ccccn2)Cc2ccccn2)N(C)C(=O)[C@@H](C(C)C)N(C)C(=O)[C@@H](CC(C)C)N(C)C(=O)[C@@H](CC(C)C)N(C)C(=O)[C@H](C)NC(=O)[C@@H](C)NC(=O)[C@@H](CC(C)C)N(C)C(=O)[C@@H](C(C)C)NC(=O)[C@H](CC(C)C)N(C)C(=O)[C@@H](C)N(C)C1=O [Compound DB, [(3R,4R,5S)-1-(Bis{pyridin-2-ylmethyl}amino)-4-hydroxy-3-methyl-5-(methylamino)-hexanoic acid]^1[(R)-methyl-Sar]^3 cyclosporin A]	–	7.4	solubility at 18 h [1, 4]: 75 to 100 µM (≈ 104 to 139 µg/mL)
CC[C@H]1NC(=O)[C@@H]([C@H](O)[C@H](C)CCN(C)CCOC)N(C)C(=O)[C@@H](C(C)C)N(C)C(=O)[C@@H](CC(C)C)N(C)C(=O)[C@@H](CC(C)C)N(C)C(=O)[C@H](C)NC(=O)[C@@H](C)NC(=O)[C@@H](CC(C)C)N(C)C(=O)[C@@H](C(C)C)NC(=O)[C@H](CC(C)C)N(C)C(=O)[C@@H](C)N(C)C1=O [Compound AG]	–	–	solubility at 18 h ([1]; 35 mM HEPES pH 7.8, 1% DMSO, 25 °C, 18 h, read-out: Water Solubility Assay, concentration at which the compound remains in solution): >100 µM; Ki [2, 5]: 18 nM
CC[C@H]1NC(=O)[C@@H]([C@H](O)[C@H](C)CCCCCNCCOC)N(C)C(=O)[C@@H](C(C)C)N(C)C(=O)[C@@H](CC(C)C)N(C)C(=O)[C@@H](CC(C)C)N(C)C(=O)[C@H](C)NC(=O)[C@@H](C)NC(=O)[C@@H](CC(C)C)N(C)C(=O)[C@@H](C(C)C)NC(=O)[C@H](CC(C)C)N(C)C(=O)[C@@H](C)N(C)C1=O [Compound AI, [(6R,7R,8S)-7-Hydroxy-6-methyl-8-(methylamino)-1-N-(2-methoxy)ethylamino-nonanoic acid]^1[(R)-methyl-Sar]^3 cyclosporin A]	> 100	3.3	–

More lines, main results first:

solubility at 18 h [1, 3] [µM]	Ki [2] [nM]	SMILES	other results
> 100	4.5	CC[C@H]1NC(=O)[C@@H]([C@H](O)[C@H](C)CCN2CCOCC2)N(C)C(=O)[C@@H](C(C)C)N(C)C(=O)[C@@H](CC(C)C)N(C)C(=O)[C@@H](CC(C)C)N(C)C(=O)[C@H](C)NC(=O)[C@@H](C)NC(=O)[C@@H](CC(C)C)N(C)C(=O)[C@@H](C(C)C)NC(=O)[C@H](CC(C)C)N(C)C(=O)[C@@H](CO)N(C)C1=O [Compound V, [(3R,4R,5S)-4-Hydroxy-3-methyl-5-(methylamino)-1-N-morpholino-hexanoic acid]^1[(R)-hydroxymethyl-Sar]^3 cyclosporin A]	–
> 100	4.7	CC[C@H]1NC(=O)[C@@H]([C@H](O)[C@H](C)CCN2CCOC[C@H]2C)N(C)C(=O)[C@@H](C(C)C)N(C)C(=O)[C@@H](CC(C)C)N(C)C(=O)[C@@H](CC(C)C)N(C)C(=O)[C@H](C)NC(=O)[C@@H](C)NC(=O)C(CC(C)C)N(C)C(=O)[C@@H](C(C)C)NC(=O)[C@H](CC(C)C)N(C)C(=O)[C@@H](C)N(C)C1=O (stereo partly drawn) [Compound DT, [(3R,4R,5S)-4-Hydroxy-3-methyl-5-methylamino-((R)-3-methyl-morpholin-4-yl)-hexanoic acid]^1[(R)-methyl-Sar]^3 cyclosporin A]	–
–	4.3	CC[C@H]1NC(=O)[C@@H]([C@H](O)[C@H](C)CCN(C)Cc2cncn2C)N(C)C(=O)[C@@H](C(C)C)N(C)C(=O)[C@@H](CC(C)C)N(C)C(=O)[C@@H](CC(C)C)N(C)C(=O)[C@H](C)NC(=O)[C@@H](C)NC(=O)[C@@H](CC(C)C)N(C)C(=O)[C@@H](C(C)C)NC(=O)[C@H](CC(C)C)N(C)C(=O)[C@@H](C)N(C)C1=O [Compound DI, [(3R,4R,5S)-4-Hydroxy-3-methyl-5-(methylamino)-1-({3-methyl-3H-imidazol-4-ylmethyl}-methylamino)-hexanoic acid]^1[(R)-methyl-Sar]^3 cyclosporin A]	solubility at 18 h [1, 4]: > 100 µM
–	8.5	CC[C@H]1NC(=O)[C@@H]([C@H](O)[C@H](C)CCN(C)Cc2ncccn2)N(C)C(=O)[C@@H](C(C)C)N(C)C(=O)[C@@H](CC(C)C)N(C)C(=O)[C@@H](CC(C)C)N(C)C(=O)[C@H](C)NC(=O)[C@@H](C)NC(=O)[C@@H](CC(C)C)N(C)C(=O)[C@@H](C(C)C)NC(=O)[C@H](CC(C)C)N(C)C(=O)[C@@H](C)N(C)C1=O [Compound DG, [(3R,4R,5S)-4-Hydroxy-3-methyl-5-(methylamino)-1-({pyrimidin-2-ylmethyl}-methylamino)-hexanoic acid]^1[(R)-methyl-Sar]^3 cyclosporin A]	solubility at 18 h [1, 4]: > 100 µM
50 to 75 (≈ 65.1 to 97.6 µg/mL)	4.3	CC[C@H]1NC(=O)[C@@H]([C@H](O)[C@H](C)CCN2CC3CCC(C2)O3)N(C)C(=O)[C@@H](C(C)C)N(C)C(=O)[C@@H](CC(C)C)N(C)C(=O)[C@@H](CC(C)C)N(C)C(=O)[C@H](C)NC(=O)[C@@H](C)NC(=O)C(CC(C)C)N(C)C(=O)[C@@H](C(C)C)NC(=O)[C@H](CC(C)C)N(C)C(=O)[C@@H](C)N(C)C1=O (stereo partly drawn) [Compound DV, [(3R,4R,5S)-4-Hydroxy-3-methyl-5-(methylamino)-1-(8-oxa-3-aza-bicyclo[3.2.1]oct-3-yl)-hexanoic acid]^1[(R)-methyl-Sar]^3 cyclosporin A]	–
25 to 50 (≈ 33.4 to 66.8 µg/mL)	7.7	CC[C@H]1NC(=O)[C@@H]([C@H](O)[C@H](C)CCN2CCOCC2)N(C)C(=O)[C@@H](C(C)C)N(C)C(=O)[C@@H](CC(C)C)N(C)C(=O)[C@@H](CC(C)C)N(C)C(=O)[C@H](C)NC(=O)[C@@H](C)NC(=O)[C@@H](CC(C)C)N(C)C(=O)[C@@H](C(C)C)NC(=O)[C@H](CC(C)C)N(C)C(=O)[C@@H](SC(C)C)N(C)C1=O [Compound I, [(3R,4R,5S)-4-Hydroxy-3-methyl-5-(methylamino)-1-N-morpholino-hexanoic acid]^1[(S)-thio-isopropyl-Sar]^3 cyclosporin A]	–
